Results: patent publication US11713306B2, “5-substituted difluoropiperidine compounds with blood-brain barrier penetrable capability” (Wayshine Biopharm Holding Limited, priority 2018, dated 2023)

Assays:
SKOV3 tumor cells = assay: SKOV3 tumor cell mouse subcutaneous animal model; format: in vivo; details: monotherapy, oral, twice a day, four weeks, vs control group
Procedure: (§1) In the efficacy experiment of SKOV3 tumor cell mouse subcutaneous animal model (FIG. 1), the drug was administered on the 30th day after the tumor cells were planted and the drug administration was lasted for four weeks. […] In the efficacy experiment of the PC-9Luc tumor cell mouse intracranial animal model (FIG. 2), the drug was administered on the 10th day after the tumor cells were planted and the drug administration was lasted for three weeks. The second group of compound 1 was used as monotherapy, 10 mg/kg, oral dosing, twice a day; the third group of EGFR inhibitors (chemical name: (R)-6-[(3,3-difluoro-1-methylpiperidin-4-yl)oxy]-nitrogen-(3-ethynyl-2-fluorophenyl)-7-methoxyquinazolin-4-amine) was used as monotherapy, 3 mg/kg, oral dosing, twice a day; the fourth group of compound 1 combined with EGFR inhibitors.

VEGFR2 = VEGFR2 (Homo sapiens (Human), UniProt P35968); assay: Kinase inhibition assay (Caliper, FAM-labeled peptide substrate); format: biochemical
VEGFR2, sequence (P35968 20-1356): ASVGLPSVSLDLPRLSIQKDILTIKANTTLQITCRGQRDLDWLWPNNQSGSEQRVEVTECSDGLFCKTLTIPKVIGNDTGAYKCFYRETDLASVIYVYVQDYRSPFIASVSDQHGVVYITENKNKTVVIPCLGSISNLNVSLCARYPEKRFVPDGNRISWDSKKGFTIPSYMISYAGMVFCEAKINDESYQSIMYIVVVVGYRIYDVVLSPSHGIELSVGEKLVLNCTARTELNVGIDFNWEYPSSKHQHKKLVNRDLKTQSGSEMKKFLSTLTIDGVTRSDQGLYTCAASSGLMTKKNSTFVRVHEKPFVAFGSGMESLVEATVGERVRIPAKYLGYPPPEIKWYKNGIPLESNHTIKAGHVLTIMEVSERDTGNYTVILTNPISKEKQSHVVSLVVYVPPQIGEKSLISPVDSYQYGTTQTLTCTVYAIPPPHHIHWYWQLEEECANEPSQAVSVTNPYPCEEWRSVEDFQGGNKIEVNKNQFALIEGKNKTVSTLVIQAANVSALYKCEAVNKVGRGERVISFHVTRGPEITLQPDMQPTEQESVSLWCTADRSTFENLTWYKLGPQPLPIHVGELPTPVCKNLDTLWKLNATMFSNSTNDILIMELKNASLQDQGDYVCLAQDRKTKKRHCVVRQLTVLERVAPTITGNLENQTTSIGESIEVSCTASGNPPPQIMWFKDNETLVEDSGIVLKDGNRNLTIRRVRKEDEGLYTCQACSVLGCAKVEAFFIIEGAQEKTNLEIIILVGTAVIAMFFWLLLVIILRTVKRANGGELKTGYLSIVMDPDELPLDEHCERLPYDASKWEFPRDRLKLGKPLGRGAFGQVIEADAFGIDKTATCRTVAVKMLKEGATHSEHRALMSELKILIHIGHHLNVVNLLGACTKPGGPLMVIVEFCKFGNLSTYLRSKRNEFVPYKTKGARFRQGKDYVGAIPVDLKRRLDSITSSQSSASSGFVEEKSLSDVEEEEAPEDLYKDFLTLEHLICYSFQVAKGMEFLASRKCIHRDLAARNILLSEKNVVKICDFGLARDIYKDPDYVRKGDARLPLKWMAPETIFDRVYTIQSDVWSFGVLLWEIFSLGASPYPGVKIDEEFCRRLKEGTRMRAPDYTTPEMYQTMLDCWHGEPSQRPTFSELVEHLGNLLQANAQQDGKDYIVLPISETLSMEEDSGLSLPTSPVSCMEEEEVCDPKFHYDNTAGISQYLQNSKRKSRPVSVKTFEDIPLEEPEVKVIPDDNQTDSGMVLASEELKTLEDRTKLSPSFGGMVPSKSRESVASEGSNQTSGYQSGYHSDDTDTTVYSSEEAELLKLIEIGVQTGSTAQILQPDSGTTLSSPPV
Procedure: (§2) 2.5 times of the kinase (VEGFR2 or EGFR or FYN) buffer solution was added to the compound diluted in equal concentration in the 384-well plate and incubated at 22-27° C. for 10 minutes, then 2.5 times of the FAM-labeled peptide substrate and ATP buffer solution were added therein and incubated at 28° C., and then the stop buffer solution was added to stop the reaction. The data was read by Caliper and the following formula was used to calculate the IC50 inhibition: Percent inhibition=(max-conversion)/(max-min)*100. Staurosporine was used as a control. In kinase inhibition assays, some of the compounds of the present invention are effective in inhibiting VEGFR2/FYN/EGFR, so they have the potential for treating or preventing cancer or central nervous system diseases (Table 1).

EGFR = EGFR (Homo sapiens (Human), UniProt P00533); assay: as above; format: biochemical
EGFR, sequence (P00533 25-1210, species assumed): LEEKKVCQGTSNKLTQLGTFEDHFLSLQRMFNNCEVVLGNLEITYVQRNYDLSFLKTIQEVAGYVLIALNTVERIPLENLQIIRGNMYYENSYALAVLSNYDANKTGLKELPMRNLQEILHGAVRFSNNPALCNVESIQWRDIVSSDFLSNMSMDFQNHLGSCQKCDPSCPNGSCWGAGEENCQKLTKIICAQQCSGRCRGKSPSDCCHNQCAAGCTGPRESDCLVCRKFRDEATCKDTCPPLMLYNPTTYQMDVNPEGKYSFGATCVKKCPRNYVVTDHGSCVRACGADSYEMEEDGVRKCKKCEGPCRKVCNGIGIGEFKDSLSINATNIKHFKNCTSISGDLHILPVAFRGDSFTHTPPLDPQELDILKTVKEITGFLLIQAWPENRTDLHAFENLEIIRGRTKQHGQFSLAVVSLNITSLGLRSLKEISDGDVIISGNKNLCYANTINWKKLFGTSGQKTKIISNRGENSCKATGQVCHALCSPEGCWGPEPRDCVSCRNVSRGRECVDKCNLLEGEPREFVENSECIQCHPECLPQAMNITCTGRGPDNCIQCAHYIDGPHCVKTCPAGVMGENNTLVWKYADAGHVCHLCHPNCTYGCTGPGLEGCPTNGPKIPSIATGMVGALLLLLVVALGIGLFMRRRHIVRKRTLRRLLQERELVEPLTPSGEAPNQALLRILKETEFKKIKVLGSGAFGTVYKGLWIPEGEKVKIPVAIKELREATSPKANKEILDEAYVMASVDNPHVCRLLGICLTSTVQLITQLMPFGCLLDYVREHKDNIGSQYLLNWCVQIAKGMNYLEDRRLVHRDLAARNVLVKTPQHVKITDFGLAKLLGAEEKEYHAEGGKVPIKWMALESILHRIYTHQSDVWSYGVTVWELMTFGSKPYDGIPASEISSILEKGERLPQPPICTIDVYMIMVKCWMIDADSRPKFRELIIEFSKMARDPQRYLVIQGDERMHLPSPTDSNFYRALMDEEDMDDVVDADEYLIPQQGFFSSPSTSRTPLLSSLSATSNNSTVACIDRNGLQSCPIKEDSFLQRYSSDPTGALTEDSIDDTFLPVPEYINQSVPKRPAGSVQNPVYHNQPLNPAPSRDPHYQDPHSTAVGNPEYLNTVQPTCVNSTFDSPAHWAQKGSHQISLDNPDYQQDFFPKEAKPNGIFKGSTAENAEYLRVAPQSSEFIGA
Procedure: as §2

PC-9Luc tumor cells = assay: PC-9Luc tumor cell mouse intracranial animal model; format: in vivo; details: monotherapy, 3 mg/kg, oral, twice a day, three weeks; vs control group
Procedure: as §1

FYN = FYN (Homo sapiens (Human), UniProt P06241); assay: Kinase inhibition assay (Caliper, FAM-labeled peptide substrate); format: biochemical
FYN, sequence (P06241 whole entry): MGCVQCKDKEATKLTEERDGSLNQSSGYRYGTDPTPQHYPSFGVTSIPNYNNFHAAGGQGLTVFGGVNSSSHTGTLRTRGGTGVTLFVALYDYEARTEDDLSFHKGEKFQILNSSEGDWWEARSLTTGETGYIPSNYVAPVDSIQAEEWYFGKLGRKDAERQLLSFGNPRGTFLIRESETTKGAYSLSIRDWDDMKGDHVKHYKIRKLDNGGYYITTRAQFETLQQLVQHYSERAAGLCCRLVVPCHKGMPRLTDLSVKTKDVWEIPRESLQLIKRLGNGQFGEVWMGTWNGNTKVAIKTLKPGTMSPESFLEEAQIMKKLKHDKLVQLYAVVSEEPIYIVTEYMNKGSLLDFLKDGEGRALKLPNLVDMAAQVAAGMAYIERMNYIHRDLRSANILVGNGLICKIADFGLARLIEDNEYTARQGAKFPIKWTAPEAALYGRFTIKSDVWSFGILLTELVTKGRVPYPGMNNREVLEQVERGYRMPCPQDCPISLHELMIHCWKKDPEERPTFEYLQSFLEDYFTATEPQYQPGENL
Procedure: as §2

| SMILES | IC50 (VEGFR2) [nM] | IC50 (FYN) [nM] | also measured |
| --- | --- | --- | --- |
| COc1cc(OC2CCN(C)CC2(F)F)c2c(Oc3ccc4[nH]c(C)cc4c3F)ncnc2c1 (racemic) [Compound 1, (R/S)-5-((3,3-difluoro-1-methylpiperidin-4-yl)oxy)-4-((4-fluoro-2-methyl-1H-indole-5-yl)oxy)-7-methoxyquinazoline] | < 10 | – | inhibition of tumor growth (SKOV3 tumor cells; 10 mg/kg): good inhibition of tumor growth; inhibition of tumor growth (SKOV3 tumor cells; 20 mg/kg): good inhibition of tumor growth |
| C#Cc1cccc(Nc2ncnc3cc(OC)cc(O[C@@H]4CCN(C)CC4(F)F)c23)c1F [Compound 27, (R)-5-((3,3-difluoro-1-methylpiperidin-4-yl)oxy)-N-(3-ethynyl-2-fluorophenyl)-7-methoxyquinazolin-4-amine] | – | – | IC50 (EGFR): < 10 nM |
| COc1cc(O[C@@H]2CCN(C)CC2(F)F)c2c(Oc3cc(F)c4[nH]c(C)cc4c3F)ncnc2c1 [Compound 19, (R)-5-((3,3-difluoro-1-methylpiperidin-4-yl)oxy)-4-((4,7-difluoro-2-methyl-1H-indol-5-yl)oxy)-7-methoxyquinazoline] | < 10 | – | – |
| COc1cc(OC2CCN(C)CC2(F)F)c2c(Oc3cc(F)c4[nH]c(C)cc4c3F)ncnc2c1 (racemic) [Compound 3, (R/S)-5-((3,3-difluoro-1-methylpiperidin-4-yl)oxy)-4-((4,7-difluoro-2-methyl-1H-indol-5-yl)oxy)-7-methoxyquinazoline] | < 10 | – | – |
| COc1cc(O[C@H]2CCN(C)CC2(F)F)c2c(Oc3ccc4[nH]c(C)cc4c3F)ncnc2c1 [Compound 33, (S)-5-((3,3-difluoro-1-methylpiperidin-4-yl)oxy)-4-((4-fluoro-2-methyl-1H-indole-5-yl)oxy)-7-methoxyquinazoline] | < 10 | – | – |
| COc1cc(O[C@H]2CCN(C)CC2(F)F)c2c(Oc3ccc4[nH]c(C)cc4c3F)ncnc2c1 [Compound 34, (S)-5-((3,3-difluoro-1-methylpiperidin-4-yl)oxy)-4-((4-fluoro-2-methyl-1H-indole-5-yl)oxy)-7-deuterated methoxyquinazoline] | < 10 | – | – |
| C#Cc1cccc(Nc2ncnc3cc(OC)cc(O[C@H]4CCN(C)CC4(F)F)c23)c1F (single isomer, unassigned) [Compound 43] | – | – | IC50 (EGFR): < 10 nM |
| C#Cc1cccc(Nc2ncnc3cc(OC)c(O[C@@H]4CCN(C)CC4(F)F)cc23)c1F [EGFR inhibitor, (R)-6-[(3,3-difluoro-1-methylpiperidin-4-yl)oxy]-nitrogen-(3-ethynyl-2-fluorophenyl)-7-methoxyquinazolin-4-amine] | – | – | inhibition of intracranial tumor growth (PC-9Luc tumor cells): good inhibition on intracranial tumor growth |
| COc1cc(O[C@H]2CCN(C)CC2(F)F)c2c(Oc3cc(F)c4[nH]c(C)cc4c3F)ncnc2c1 [Compound 35, (S)-5-((3,3-difluoro-1-methylpiperidin-4-yl)oxy)-4-((4,7-difluoro-2-methyl-1H-indol-5-yl)oxy)-7-methoxyquinazoline] | < 10 | – | – |
| COc1cc(OC2CCN(C)CC2(F)F)c2c(Oc3ccc4[nH]c(C)cc4c3F)ncnc2c1 (racemic) [Compound 2, (R/S)-5-((3,3-difluoro-1-methylpiperidin-4-yl)oxy)-4-((4-fluoro-2-methyl-1H-indole-5-yl)oxy)-7-deuterated methoxyquinazoline] | < 10 | – | – |
| C#Cc1c(F)ccc(Nc2ncnc3cc(OC)cc(OC4CCN(C)CC4(F)F)c23)c1F (racemic) [Compound 16, (R/S)-5-((3,3-difluoro-1-methylpiperidin-4-yl)oxy)-N-(3-ethynyl-2,4-difluorophenyl)-7-methoxyquinazolin-4-amine] | – | – | IC50 (EGFR): < 10 nM |
| C#Cc1cccc(Nc2ncnc3cc(OC)cc(OC4CCN(C)CC4(F)F)c23)c1F (racemic) [Compound 11, (R/S)-5-((3,3-difluoro-1-methylpiperidin-4-yl)oxy)-N-(3-ethynyl-2-fluorophenyl)-7-methoxyquinazolin-4-amine] | – | – | IC50 (EGFR): < 10 nM |
| COc1cc(O[C@@H]2CCN(C)CC2(F)F)c2c(Oc3ccc4[nH]c(C)cc4c3F)ncnc2c1 [Compound 18, (R)-5-((3,3-difluoro-1-methylpiperidin-4-yl)oxy)-4-((4-fluoro-2-methyl-1H-indole-5-yl)oxy)-7-deuterated methoxyquinazoline] | < 10 | – | – |
| COc1cc(OC2CCN(C)CC2(F)F)c2c(Nc3cc(OC)c(Cl)cc3F)ncnc2c1 (racemic) [Compound 8, (R/S)—N-(4-chloro-2-fluoro-5-methoxyphenyl)-5-((3,3-difluoro-1-methylpiperidin-4-yl)oxy)-7-methoxyquinazolin-4-amine] | – | < 100 | – |
| C#Cc1c(F)ccc(Nc2ncnc3cc(OC)cc(O[C@H]4CCN(C)CC4(F)F)c23)c1F [Compound 48, (S)-5-((3,3-difluoro-1-methylpiperidin-4-yl)oxy)-N-(3-ethynyl-2,4-difluorophenyl)-7-methoxyquinazolin-4-amine] | – | – | IC50 (EGFR): < 10 nM |
| COc1cc(O[C@@H]2CCN(C)CC2(F)F)c2c(Oc3ccc4[nH]c(C)cc4c3F)ncnc2c1 [Compound 17, (R)-5-((3,3-difluoro-1-methylpiperidin-4-yl)oxy)-4-((4-fluoro-2-methyl-1H-indole-5-yl)oxy)-7-methoxyquinazoline] | < 10 | – | – |
| C#Cc1c(F)ccc(Nc2ncnc3cc(OC)cc(O[C@@H]4CCN(C)CC4(F)F)c23)c1F [Compound 32, (R)-5-((3,3-difluoro-1-methylpiperidin-4-yl)oxy)-N-(3-ethynyl-2,4-difluorophenyl)-7-methoxyquinazolin-4-amine] | – | – | IC50 (EGFR): < 10 nM |

Now from value to molecule, other results behind:

| IC50 (VEGFR2) [nM] | IC50 (FYN) [nM] | SMILES | also measured |
| --- | --- | --- | --- |
| – | < 100 | COc1cc(O[C@@H]2CCN(C)CC2(F)F)c2c(Nc3c(Cl)ccc4c3OCO4)ncnc2c1 [Compound 28, (R)—N-(5-chlorobenzo[d] [1,3]dioxolcyclopenten-4-yl)-5-((3,3-difluoro-1-methylpiperidin-4-yl)oxy)-7-deuterated methoxyquinazolin-4-amine] | – |
| – | < 100 | CCN1CCC(Oc2cc(OC)cc3ncnc(Nc4c(F)ccc5c4OCO5)c23)C(F)(F)C1 (racemic) [Compound 10, (R/S)-5-((1-ethyl-3,3-difluoropiperidin-4-yl)oxy)-N-(5-fluorobenzo[d] [1,3]dioxolcyclopenten-4-yl)-7-methoxyquinazolin-4-amine] | – |
| – | < 100 | COc1cc(OC2CCN(C)CC2(F)F)c2c(Nc3c(Cl)ccc4c3OCO4)ncnc2c1 (racemic) [Compound 12, (R/S)—N-(5-chlorobenzo[d] [1,3]dioxolcyclopenten-4-yl)-5-((3,3-difluoro-1-methylpiperidin-4-yl)oxy)-7-deuterated methoxyquinazolin-4-amine] | – |
| – | < 100 | CCN1CC[C@H](Oc2cc(OC)cc3ncnc(Nc4c(F)ccc5c4OCO5)c23)C(F)(F)C1 [Compound 42, (S)-5-((1-ethyl-3,3-difluoropiperidin-4-yl)oxy)-N-(5-fluorobenzo[d] [1,3]dioxolcyclopenten-4-yl)-7-methoxyquinazolin-4-amine] | – |
| – | < 100 | COc1cc(O[C@H]2CCN(C3COC3)CC2(F)F)c2c(Nc3c(Cl)ccc4c3OCO4)ncnc2c1 [Compound 46, (S)-5-((3,3-difluoro-1-(oxetane-3-yl)piperidin-4-yl)oxy)-N-(5-chlorobenzo[d][1,3]dioxolcyclopenten-4-yl)-7-methoxyquinazolin-4-amine] | – |
| – | < 100 | COc1cc(OC2CCN(C(C)C)CC2(F)F)c2c(Nc3c(F)ccc4c3OCO4)ncnc2c1 (racemic) [Compound 15, (R/S)-5-((3,3-difluoro-1-isopropylpiperidin-4-yl)oxy)-N-(5-fluorobenzo[d][1,3]dioxolcyclopenten-4-yl)-7-methoxyquinazolin-4-amine] | – |
| – | < 100 | COc1cc(O[C@@H]2CCN(C3COC3)CC2(F)F)c2c(Nc3c(Cl)ccc4c3OCO4)ncnc2c1 [Compound 30, (R)-5-((3,3-difluoro-1-(oxetane-3-yl)piperidin-4-yl)oxy)-N-(5-chlorobenzo[d][1,3]dioxolcyclopenten-4-yl)-7-methoxyquinazolin-4-amine] | – |
| – | < 100 | COc1cc(OC2CCN(C3COC3)CC2(F)F)c2c(Nc3c(Cl)ccc4c3OCO4)ncnc2c1 (racemic) [Compound 14, (R/S)-5-((3,3-difluoro-1-(oxetane-3-yl)piperidin-4-yl)oxy)-N-(5-chlorobenzo[d][1,3]dioxolcyclopenten-4-yl)-7-methoxyquinazolin-4-amine] | – |
| – | < 100 | COc1cc(OC2CCN(C)CC2(F)F)c2c(Nc3c(F)ccc4c3OCO4)ncnc2c1 (racemic) [Compound 5, (R/S)—N-(5-fluorobenzo[d][1,3]dioxolcyclopenten-4-yl)-5-((3,3-difluoro-1-methylpiperidin-4-yl)oxy)-7-methoxyquinazolin-4-amine] | – |
| – | < 100 | COc1cc(O[C@H]2CCN(C)CC2(F)F)c2c(Nc3c(Cl)ccc4c3OCO4)ncnc2c1 [Compound 44, (S)—N-(5-chlorobenzo[d] [1,3]dioxolcyclopenten-4-yl)-5-((3,3-difluoro-1-methylpiperidin-4-yl)oxy)-7-deuterated methoxyquinazolin-4-amine] | – |
